Read-outs that look alike come from different tables or passages of the source.
Test system: colorectal cancer cell lines (e.g. DLD-1, HCT 116, SW620, HCT-15, HCT-8, RKO)
Assay: Cell based assay, cell viability (CellTiter-Glo), colorectal cancer cell lines
How it was run: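 Luminescent ATP assay quantified surviving cells after three days of treatment. Compound was applied at final concentrations of 0 to 2 μM, starting 24 h after cells were seeded.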

[1] = Homo sapiens, DLD-1, 72 hours treatment, read-out: IC50, colorectal cancer cell line DLD-1
[2] = Homo sapiens, HCT 116, 72 hours treatment, read-out: IC50, colorectal cancer cell line HCT 116
[3] = Homo sapiens, HCT-8, 72 hours treatment, read-out: IC50, colorectal cancer cell line HCT-8
[4] = Homo sapiens, HCT-15, 72 hours treatment, read-out: IC50, colorectal cancer cell line HCT-15
[5] = Homo sapiens, HT-29, 72 hours treatment, read-out: IC50, colorectal cancer cell line HT-29
[6] = Homo sapiens, LoVo, 72 hours treatment, read-out: IC50, colorectal cancer cell line LoVo
[7] = Homo sapiens, SW480, 72 hours treatment, read-out: IC50, colorectal cancer cell line SW480
[8] = Homo sapiens, SW-620, SW620, 72 hours treatment, read-out: IC50, colorectal cancer cell line SW620
[9] = RKO, 72 hours treatment, read-out: IC50, colorectal cancer cell line RKO

Structure (SMILES) | IC50 [1] [µM] | IC50 [2] [µM] | IC50 [3] [µM] | IC50 [4] [µM] | IC50 [5] [µM] | IC50 [6] [µM] | IC50 [7] [µM] | IC50 [8] [µM] | IC50 [9] [µM] | IC50 (Homo sapiens, DLD-1 cells, 72 hours treatment, read-out: IC50, colorectal cancer cell line DLD-1) [µM] | IC50 (Homo sapiens, HCT 116 cells, 72 hours treatment, read-out: IC50, colorectal cancer cell line HCT 116) [µM] | IC50 (Homo sapiens, HCT-8 cells, 72 hours treatment, read-out: IC50, colorectal cancer cell line HCT-8) [µM] | IC50 (Homo sapiens, HCT-15 cells, 72 hours treatment, read-out: IC50, colorectal cancer cell line HCT-15) [µM] | IC50 (Homo sapiens, HT-29 cells, 72 hours treatment, read-out: IC50, colorectal cancer cell line HT-29) [µM] | IC50 (Homo sapiens, LoVo cells, 72 hours treatment, read-out: IC50, colorectal cancer cell line LoVo) [µM] | IC50 (Homo sapiens, RKO cells, 72 hours treatment, read-out: IC50, colorectal cancer cell line RKO) [µM] | IC50 (Homo sapiens, SW480 cells, 72 hours treatment, read-out: IC50, colorectal cancer cell line SW480) [µM] | IC50 (Homo sapiens, SW-620, SW620 cells, 72 hours treatment, read-out: IC50, colorectal cancer cell line SW620) [µM]
CC(=O)c1c([S+]([O-])Cc2ccc(SC(F)(F)F)cc2)[nH]c2c(Br)ccc(Cl)c2c1=O (stereo not drawn) [Compound 56, 3-acetyl-8-bromo-5-chloro-2-((4-((trifluoromethyl)thio)benzyl)sulfinyl)quinolin-4(1H)-one] | 0.8 | 1.19 | 1.69 | 1.32 | > 10 | > 2 | > 2 | 1.91 | 1.53 |  |  |  |  |  |  |  |  | 
CC(=O)c1c([S+]([O-])Cc2ccc(OC(F)(F)F)cc2)[nH]c2c(Br)ccc(Cl)c2c1=O (stereo not drawn) [Compound 71, 3-acetyl-8-bromo-5-chloro-2-((4-(trifluoromethoxy)benzyl)sulfinyl)quinolin-4(1H)-one] | 1.15 | 1.73 | > 2 | 1.62 | > 10 | > 2 | > 2 | > 2 | > 2 |  |  |  |  |  |  |  |  | 
CC(=O)c1c([S+]([O-])Cc2ccc(C(C)(C)C)cc2)[nH]c2c(Br)ccc(Cl)c2c1=O (stereo not drawn) [Compound 60, 3-acetyl-8-bromo-2-((4-(tert-butyl)benzyl)sulfinyl)-5-chloroquinolin-4(1H)-one] | 1.48 | 1.94 | > 2 | 1.8 | > 10 | > 2 | > 2 | > 2 | > 2 |  |  |  |  |  |  |  |  | 
Cc1cc(C[S+]([O-])c2[nH]c3c(Br)ccc(Cl)c3c(=O)c2C(=O)C(C)C)no1 (stereo not drawn) [Compound 95, 8-bromo-5-chloro-3-isobutyryl-2-(((5-methylisoxazol-3-yl)methyl)sulfinyl)quinolin-4(1H)-one] |  |  |  |  |  |  |  |  |  | 1.13 | 0.76 | 0.81 | 1.06 | > 10 | 0.91 | 0.92 | 1.19 | 0.64

From patent US11464770B2, “Anticancer pharmaceutical composition” (NATIONAL CANCER CENTER, priority 2016, dated 2022)
